According to patent US9340490B2, “Diagnostic agent for tumor” (SBI PHARMACEUTICALS CO., LTD., priority 2004, dated 2016):

What was measured:
normal nude mice = assay: Uroporphyrin and coproporphyrin in urine by HPLC, normal nude mice (Example 5); assay type: in vivo; conditions: 4 hours after oral 50 μl of 0.12 M, corrected per creatinine
Description: (§1) The thus collected urine was measured by HPLC (regarding the analyzing conditions, a fluorescence detector: excitation wavelength 406 nm, fluorescence wavelength 619 nm was used,
(§2) A: 80% acetonitrile/7% acetic acid/50 mM ammonium acetate and
(§3) B: 10% acetonitrile/4% acetic acid/50 mM ammonium acetate were used as the eluting solutions and subjected to a linear gradient of A/B (20/80)-A/B (90/10) for 13 minutes and then to elution with solution A for 10 minutes, ODS-AGtypeCAPCELLPAK, 4.6 mm×250 mm, particle diameter 5 μm (manufactured by Shiseido) was used as the column, and the measurement was carried out at a flow rate of 1.0 ml/min and at a temperature of 25° C.), and each concentration was calculated from the standard solutions. Further, the urine concentration was corrected by measuring the amount of creatinine (CRE) in urine, and calculating the amount of porphyrin per CRE.

[1] = test system: human liver cancer cell (HepG2 cell) tumor-bearing nude mice; assay: Uroporphyrin and coproporphyrin in urine by HPLC, nude mice bearing human liver cancer cells (Example 5); assay type: in vivo, nude mice (BALB/cA-nu)
Description: as §1, §2, §3

[2] = test system: human cervical cancer cell (HeLa cell) tumor-bearing nude mice; assay: Uroporphyrin and coproporphyrin in urine by HPLC, nude mice bearing human cervical cancer cells (Example 5); assay type: in vivo, nude mice (BALB/cA-nu)
Description: as §1, §2, §3

[3] = test system: MH 134 cell (ascitic liver cancer cell) tumor-bearing mice; conditions: female, C3H/He, mouse, in vivo, po
Description: A mouse tumor-bearing cell (MH 134 cell: ascitic liver cancer cell) was intraperitoneally administered to mice (C3H/He line, 5-week-old, female) at a dose of 1×10^6 cells, and they were reared for 0 to 14 days. Ten days after the intraperitoneal administration of tumor-bearing cells, 50 μl of 0.12 M δ-aminolevulinic acid hydrochloride, δ-aminolevulinic acid methyl ester hydrochloride, δ-aminolevulinic acid hexyl ester hydrochloride or δ-aminolevulinic acid phosphate was orally administered to the mice to which the tumor-bearing cells had been intraperitoneally administered. From 10 to 20 μl of blood samples were collected from the orally administered mice 0, 0.25, 0.5, 2, 3, 4 or 6 hours thereafter. The thus collected blood was centrifuged at 2000×g for 5 minutes, 300 μl of ethyl acetate/acetic acid (2/1, v/v) was added to 5 μl of the supernatant (plasma), followed by mixing, 300 μl of 0.6 M NaOH solution was further added thereto, followed by mixing, and the NaOH layer was collected. To the remaining organic layer, 300 μl of 0.5 M aqueous hydrochloric acid solution was added, and the aqueous hydrochloric acid solution layer was collected. Fluorescence intensities of the NaOH layer and aqueous hydrochloric acid solution layer were measured (hydrochloric acid layer: excitation wavelength 400 nm, fluorescence wavelength 600 nm, NaOH layer: excitation wavelength 400 nm, fluorescence wavelength 619 nm), and respective concentrations were calculated from the standard solutions. In addition, δ-aminolevulinic acid hydrochloride, δ-aminolevulinic acid methyl ester hydrochloride, δ-aminolevulinic acid hexyl ester hydrochloride or δ-aminolevulinic acid phosphate was also orally administered (0.12 M, 50 μl) to normal mice as the control, and the same treatment was carried out.

normal mice [4] = assay: Blood protoporphyrin IX and uroporphyrin by fluorescence detection after oral administration, normal mice (Example 1); assay type: in vivo; conditions: 2 hours after oral 50 μl of 0.12 M
normal mice [5] = assay: Uroporphyrin I and III in urine by HPLC, normal mice (Example 3); assay type: in vivo; conditions: 2 hours after oral 50 μl of 0.12 M
Description: (§4) The thus collected samples were measured by HPLC (regarding the analyzing conditions, a fluorescence detector: excitation wavelength 406 nm, fluorescence wavelength 619 nm was used, a solution consisting of 12.5% acetonitrile, 1 M ammonium acetate and 0.27 mM EDTA, pH 5.15 (adjusted with acetic acid), was used as the eluting solution, ODS-AGtypeCAPCELLPAK, 4.6 mmφ×250 mm, particle diameter 5 μm (manufactured by Shiseido) was used as the column, and the measurement was carried out at a flow rate of 1.0 ml/min and at a temperature of 25° C.), and respective concentrations were calculated from the standard solutions.

[6] = test system: MH 134 cell tumor-bearing mice; assay: Uroporphyrin I and III in urine by HPLC, tumor-bearing mice (Example 3); assay type: in vivo, mice (C3H/He line)
Description: as §4

[7] = test system: MH 134 cell tumor-bearing mice; assay: Uroporphyrin and coproporphyrin in feces by HPLC, tumor-bearing mice (Example 4); assay type: in vivo, mice (C3H/He line); conditions: 2 hours after oral 50 μl of 0.12 M
Description: To 10 mg in wet weight portion of the thus collected feces, 100 μl of an ethyl acetate-acetic acid mixture liquid (4/1, v/v) was added, the mixture was homogenized and then filtered using a filter paper, 10 μl of the filtrate was measured by HPLC (regarding the analyzing conditions, a fluorescence detector: excitation wavelength 406 nm, fluorescence wavelength 619 nm was used, a solution A: 80% acetonitrile/7% acetic acid/50 mM ammonium acetate mixture liquid and a solution B: 10% acetonitrile/4% acetic acid/50 mM ammonium acetate mixture liquid were used as the eluting solutions and subjected to a linear gradient of A/B (20/80)-A/B (90/10) for 30 minutes and then to the holding with solution A for 20 minutes, ODS-AGtypeCAPCELLPAK, 4.6 mmφ×250 mm, particle diameter 5 μm (manufactured by Shiseido) was used as the column, and the measurement was carried out at a flow rate of 1.0 ml/min and at a temperature of 25° C.), and respective concentrations were calculated from the peak areas of standard solutions.

[8] = test system: MH 134 cell tumor-bearing mice; assay: Uroporphyrin I and III in blood by HPLC, tumor-bearing mice (Example 2); assay type: in vivo, mice (C3H/He line); conditions: 2 hours after oral 50 μl of 0.12 M
Description: as §4, with “The samples were” for “The thus collected samples were”, “fluorescence wavelength 610 nm was” for “fluorescence wavelength 619 nm was”, “from the peak areas of standard solutions.” for “from the standard solutions.”

[9] = mice given human liver cancer cells, after administration
[10] = tumor-bearing mice (human liver cancer cell), 4 hours after oral 50 μl of 0.12 M, corrected per creatinine
[11] = mice given human cervical cancer cells, after administration
[12] = tumor-bearing mice (human cervical cancer cell), 4 hours after oral 50 μl of 0.12 M, corrected per creatinine
[13] = tumor-bearing mice, 2 hours after oral 50 μl of 0.12 M

## NCC(=O)CCC(=O)O.O=P(O)(O)O [δ-aminolevulinic acid phosphate]
Normal nude mice
  Coproporphyrin in urine, after administration: 0.99 μmol/g-CRE
  Uroporphyrin in urine, after administration: 0.16 μmol/g-CRE
[1]; [9]
  amount of coproporphyrin in urine relative to normal mice: about 1.5 times
  amount of uroporphyrin in urine relative to normal mice: about 15 times
[1]; [10]
  Coproporphyrin in urine, after administration: 1.44 μmol/g-CRE
  Uroporphyrin in urine, after administration: 2.47 μmol/g-CRE
[2]; [11]
  amount of coproporphyrin in urine relative to normal mice: about 2.7 times
  amount of uroporphyrin in urine relative to normal mice: about 94 times
[2]; [12]
  Coproporphyrin in urine, after administration: 2.66 μmol/g-CRE
  Uroporphyrin in urine, after administration: 15.1 μmol/g-CRE
[3]
  time after administration at which concentrations of protoporphyrin IX and uroporphyrin became maximum: 2 h
Normal mice [4]
  uroporphyrin in blood of normal mice: hardly detected

## COC(=O)CCC(=O)CN.Cl [δ-aminolevulinic acid methyl ester hydrochloride]
[3]
  time after administration at which concentrations of protoporphyrin IX and uroporphyrin became maximum: 2 h
Normal mice [4]
  uroporphyrin in blood of normal mice: hardly detected

## CCCCCCOC(=O)CCC(=O)CN.Cl [δ-aminolevulinic acid hexyl ester hydrochloride]
[3]
  time after administration at which concentrations of protoporphyrin IX and uroporphyrin became maximum: 2 h
Normal mice [4]
  uroporphyrin in blood of normal mice: hardly detected

## Cl.NCC(=O)CCC(=O)O [δ-aminolevulinic acid hydrochloride]
Normal mice [5]
  Ratio of uroporphyrin I/uroporphyrin III in urine: 0.94
  Uroporphyrin I in urine, after administration: 0.95 ng/µL
  Uroporphyrin III in urine, after administration: 1.01 ng/µL
[6]; after administration, urine 2 hours
  amounts of uroporphyrin I and uroporphyrin III in urine, tumor-bearing mice in comparison with normal mice: about 13 times
[6]; [13]
  Ratio of uroporphyrin I/uroporphyrin III in urine: 0.54
  Uroporphyrin I in urine, after administration: 11.95 ng/µL
  Uroporphyrin III in urine, after administration: 22.28 ng/µL
[7]
  Coproporphyrin in feces, after administration: 0.21 pmol
  Uroporphyrin in feces, after administration: 1.75 pmol
[3]
  time after administration at which concentrations of protoporphyrin IX and uroporphyrin became maximum: 2 h
Normal mice [4]
  uroporphyrin in blood of normal mice: hardly detected
[8]
  Ratio of uroporphyrin I/uroporphyrin III in blood: 0.53
  Uroporphyrin I in blood, after administration: 0.2 ng/µL
  Uroporphyrin III in blood, after administration: 0.38 ng/µL
